The values that follow are results of earlier work, collected in paper PMC5408581, “Using X-ray Crystallography, Biophysics, and Functional Assays to Determine the Mechanisms Governing T-cell Receptor Recognition of Cancer Antigens” (Journal of Visualized Experiments : JoVE, 2017).

The target in series [1] is gp100 TCR (TRAV17 TRBV19). The arrangement: method as in PMID 26917722. As to conditions: SPR, CM5 chip, 25 °C, table reprinted; for Kd: read-out: gp100 TCR TRAV17 TRBV19 Affinity KD.
For series [2], the target named is PMEL17 TCR (TRAV21 TRBV7-3). Further details: method as in PMID 26917722. Conditions: SPR, CM5 chip, 25 °C, table reprinted. (In SPR one partner is held on a chip, and binding of the other changes the refractive index at the surface.)
The mark [3] stands for this setting: peptide refolded with biotin-tagged HLA-A*0201/β2m and coupled via streptavidin (~500-600 RU), ten serial dilutions of soluble TCR, 30 µL/min, equilibrium KD by nonlinear fit.

Read-outs that look alike come from different tables or passages of the source.

Broadly, the Kd is the concentration at which binding is half-saturated. Turning to “YLEPGPVTV [YLE-9V, with HLA-A*0201 called A2-YLE-9V]”, in series [1] (setting [3]), the Kd was 0.0219 ± 0.0024 mM.

On to “YLEPAPVTA [YLE-5A, with HLA-A*0201 called A2-YLE-5A]”, for which the Kd in series [2] (read-out: PMEL17 TCR TRAV21 TRBV7-3 Affinity KD, peptide-HLA-A*0201 coupled via streptavidin, soluble TCR injected, bound given in mM) is above 1 mM; in series [1] (peptide-HLA-A*0201 coupled via streptavidin, soluble TCR injected, bound given in mM), above 1 mM.

As for “YLEPGPVTA [presented by HLA-A*0201 it is called A2-YLE]”, the Kd in series [1] (setting [3]) was 0.0265 ± 0.0023 mM.

Consider “YLAPGPVTA [YLE-3A, with HLA-A*0201 called A2-YLE-3A]”, for which the “PMEL17 TCR TRAV21 TRBV7-3 Affinity KD” value in series [2] (setting [3]) was “No binding”. Moreover, the “gp100 TCR TRAV17 TRBV19 Affinity KD” value in series [1] (setting [3]) is “No binding”.
